Data as given in patent EP2384752A1, “Combination preparation comprising a phosphodiesterase inhibitor and a COX inhibitor for treating cancer” (Universitätsklinikum Hamburg-Eppendorf, priority 2010, dated 2011).

Experiments:
H69 Zellen = assay: XTT cell proliferation test, Meloxicam, Sildenafil and their combination; format: cell-based; details: Meloxicam alone, compared with Indomethacin
Procedure: Die zu untersuchenden Zelllinien wurden mit den in den Figuren angegeben Konzentrationen von Indometacin und IBMX behandelt. Die Proliferationsversuche wurden in 96-Loch-Mikrotiterplatten durchgeführt; das Gesamtvolumen pro Vertiefung betrug 100 µl. 80 µl Zellsuspension wurde pro Vertiefung verwendet. Die Zellzahl der jeweils verwendeten Suspensionen betrug für SW2 180.000 Zellen pro ml, für OH1 338.000 Zellen pro ml, für OH3 180.000 Zellen pro ml und für H69 563.000 Zellen pro ml. Da zum Lösen sowohl von Indometacin 20% Ethanol als auch von IBMX 20% Ethanol verwendet wurde, bestand die Kontrolle aus 80 µl Zellsuspension mit der jeweiligen Zellzahl pro ml und 20 µl Alkoholkontrolle mit einer Konzentration von 20% Ethanol. Im Gesamtvolumen von 100 µl ergab sich so eine Alkoholkonzentration von 4%. Eine weitere Kontrolle bestand aus 80 µl Zellsuspension mit der jeweiligen Zellzahl pro ml und 20 µl Kulturmedium, um den wachstumshemmenden Effekt vom Ethanol erkennen zu können. Der Leerwert bestand aus 100 µl Kulturmedium.
H69 Zellen wurden wie in Beispiel 5 beschrieben mit Meloxicam und Sildefanil behandelt. […] Die Ergebnisse sind in Figur 10 dargestellt. Auch hier lässt sich eine signifikant synergistische Wirkung auf die Proliferation der H69-Zellen beobachten.

[1] = tested on: Zelllinien des kleinzelligen Bronchialkarzinoms H69, SW2, OH1, OH3 und H82; assay: XTT cell proliferation test, single agents Indometacin or IBMX; format: cell-based
Text: Vor Beginn der Versuche zur Zellproliferation wurde zunächst für jede Zelllinie eine Eichkurve erstellt, um die optimale Zellzahl pro ml für die nachfolgenden Versuchsreihen zu ermitteln. Dafür wurde das Zellproliferationskit XTT (Roche, Penzberg, Deutschland) verwendet. Hierbei wird durch ein in allen vitalen Zellen vorhandenes Enzym das gelbe Tetrazoliumsalz XTT zum orangen Salz Formazan reduziert. Somit stellt die Extinktion der jeweiligen Zellkulturprobe ein Maß für die Anzahl der vitalen Zellen dar.
Die Zelllinien wurden in sieben verschiedenen Konzentrationen zwischen 10^4 und 10^7 Zellen pro ml in Mikrotiterplatten mit 96 Vertiefungen ausgesät. In jede Vertiefung wurde zunächst 10 µl PBS (pH 7,4) vorgelegt und dann 90 µl der Zellsuspension mit der jeweiligen Zellzahl pro ml zugegeben. Für jede Zelllinie wurden sechs parallele Ansätze hergestellt. Nach 72 Stunden Inkubation unter Standardbedingungen wurden 50 µl XTT Labeling Mixture pro Vertiefung zugegeben. Nach sechs Stunden wurde die Absorption bei 450 nm in einem Dynatech MR 3.13 Mikroelisa Reader gemessen und anhand der erzielten Werte Eichkurven erstellt. Figur 1 zeigt die Eichkurven für die Zelllinien H69, SW2, OH1, OH3 und H82OH1-Zellen. Die Zellzahlen wurden so gewählt, dass sich die Zellen bei ungehindertem Wachstum in der exponentiellen Wachstumsphase befanden. So ergab sich eine Konzentration von 160.000 Zellen pro ml für die Zelllinien OH3 und SW2, 300.000 Zellen pro ml für OH1, 500.000 Zellen pro ml für H69 und 750.000 Zellen pro ml für H82.
Dieser Versuch wurde mit allen oben genannten Zelllinien durchgeführt. Dafür wurden zunächst Lösungen der einzelnen Wirkstoffe in die Vertiefungen einer 96-Loch-Mikrotiterplatte gegeben. Die in Kulturmedium vorliegenden Zellsuspensionen wurden zugegeben, sodass sich ein Gesamtvolumen von 100 µl pro Vertiefung ergab.
Die Zellzahl für die jeweiligen Zelllinien betrug für SW2 205.700 Zellen pro ml, für H82 964.000 Zellen pro ml, für OH1 385.700 Zellen pro ml, für OH3 205.700 Zellen pro ml und für H69 643.000 Zellen pro ml. Da zum Lösen von Indometacin 5% Ethanol und zum Lösen von IBMX 1 % Ethanol verwendet wurde, bestand die Kontrolle aus 70 µl Zellsuspension mit der jeweiligen Zellzahl pro ml, 20 µl Medium und 10 µl Alkoholkontrolle mit einer Konzentration von 6% Ethanol. Im Gesamtvolumen von 100 µl ergab sich somit eine Alkoholkonzentration von 0,6%. Der Leerwert bestand aus 100 µl Medium. Jede gewählte Kombination der Wirkstoffe in den unterschiedlichen Konzentrationen wurde pro Versuch sechsfach getestet.

[2] = 72 h, read-out: Inhibierung auf einen Wert von % der Alkoholkontrolle

Cc1cnc(NC(=O)C2=C(O)c3ccccc3S(=O)(=O)N2C)s1 [Meloxicam, 4-Hydroxy-2-methyl-N-(5-methyl-2-thiazolyl)-2H-1,2-benzothiazin-3-carboxamid-1,1-dioxid]
Wirkung bei H69-Zellen (H69 Zellen): wirkt bei H69-Zellen in den gleichen Dosierungen wie Indomethacin

COc1ccc2c(c1)c(CC(=O)O)c(C)n2C(=O)c1ccc(Cl)cc1 [Indometacin, 2-[1-(4-Chlorbenzoyl)-5-methoxy-2-methyl-1H-indol-3-yl]essigsäure]
activity at 200 µM [1, 2]: ~60% | activity at 300 µM [1, 2]: ~60%

CC(C)Cn1c(=O)n(C)c(=O)c2[nH]cnc21 [IBMX, 1-Methyl-3-(2-methylpropyl)-7H-purine-2,6-dione]
activity at 1500 µM ([1]; 72 h, 1,5 mM IBMX, cell line not stated, read-out: Hemmung, % der Alkoholkontrolle): 51% | activity at 1250 µM ([1]; 72 h, 1,25 mM IBMX, cell line not stated, read-out: Hemmung, % der Alkoholkontrolle): 52% | activity at 2000 µM ([1]; 72 h, 2,0 mM IBMX, cell line not stated, read-out: Hemmung, % der Alkoholkontrolle): 45% | activity at 750 µM ([1]; 72 h, from 0,75 mM IBMX, cell line not stated, data not shown, read-out: Hemmung, % der Alkoholkontrolle): ~80% | Wirkung auf die verschiedenen Zellen des kleinzelligen Bronchialkarzinoms ([1]; single agent): antiproliferative Wirkung
